Data from ChEMBL document CHEMBL2074466, “Breast cancer resistance protein exports sulfated estrogens but not free estrogens” (Mol Pharmacol, 2003).

Experiments:
[1] = target: T1, Broad substrate specificity ATP-binding cassette transporter ABCG2 (Homo sapiens, UniProt Q9UNQ0); assay: TP_TRANSPORTER: uptake in BCRP-expressing LLC-PK1 cells; format: functional, cell-based; conditions: pig
T1 sequence (Q9UNQ0 whole entry): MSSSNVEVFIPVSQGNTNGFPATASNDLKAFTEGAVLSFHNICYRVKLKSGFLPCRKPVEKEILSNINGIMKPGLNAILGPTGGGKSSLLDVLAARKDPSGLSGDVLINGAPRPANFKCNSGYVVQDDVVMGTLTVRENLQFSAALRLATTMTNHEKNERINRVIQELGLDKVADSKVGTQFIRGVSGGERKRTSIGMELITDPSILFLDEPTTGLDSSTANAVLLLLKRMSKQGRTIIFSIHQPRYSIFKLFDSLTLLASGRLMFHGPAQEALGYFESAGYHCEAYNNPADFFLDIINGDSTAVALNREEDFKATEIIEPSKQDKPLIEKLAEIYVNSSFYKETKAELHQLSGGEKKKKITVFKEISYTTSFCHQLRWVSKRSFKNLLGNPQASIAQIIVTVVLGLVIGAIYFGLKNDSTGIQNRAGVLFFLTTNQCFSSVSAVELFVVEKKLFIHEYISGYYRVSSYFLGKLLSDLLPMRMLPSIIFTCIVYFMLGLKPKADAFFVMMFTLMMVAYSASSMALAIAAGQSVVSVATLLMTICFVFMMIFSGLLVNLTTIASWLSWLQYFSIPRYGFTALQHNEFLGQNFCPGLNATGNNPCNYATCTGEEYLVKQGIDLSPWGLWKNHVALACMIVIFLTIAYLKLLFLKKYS

[2] = target: T1, Broad substrate specificity ATP-binding cassette transporter ABCG2; assay: TP_TRANSPORTER: inhibition of E1S uptake by Cortisol at a concentration of 30uM in membrane vesicle from BCRP-expressing K562 cells; format: functional, cell membranes; design: scale not given: the % may be the effect or the level left; conditions: k562, 30 µM
BCRP (ABCG2) [3] = target: T2, BCRP (ABCG2) (Homo sapiens, UniProt Q9UNQ0); assay: TP_TRANSPORTER: inhibition of E1S uptake by Dehydroepiandrosterone-3-sulfate at a concentration of 30uM in membrane vesicle from BCRP-expressing K562 cells; format: functional, cell membranes; design: scale not given: the % may be the effect or the level left; conditions: membrane vesicles from BCRP-expressing K562 cells, probe E1S, read-out: Activity
T2 sequence (Q9UNQ0 whole entry): T1 sequence (Q9UNQ0 whole entry)

BCRP (ABCG2) [4] = target: T2, BCRP (ABCG2); assay: TP_TRANSPORTER: inhibition of E1S uptake by Taurolithocholate-3-sulfate at a concentration of 30uM in membrane vesicle from BCRP-expressing K562 cells; format: functional, cell membranes; design: scale not given: the % may be the effect or the level left; conditions: membrane vesicles from BCRP-expressing K562 cells, probe E1S, read-out: Activity
BCRP (ABCG2) [5] = target: T2, BCRP (ABCG2); assay: TP_TRANSPORTER: inhibition of E1S uptake by 17beta-estradiol at a concentration of 30uM in membrane vesicle from BCRP-expressing K562 cells; format: functional, cell membranes; design: scale not given: the % may be the effect or the level left; conditions: membrane vesicles from BCRP-expressing K562 cells, probe E1S, read-out: Activity
BCRP (ABCG2) [6] = target: T2, BCRP (ABCG2); assay: TP_TRANSPORTER: inhibition of E1S uptake by Taurolithocholate at a concentration of 30uM in membrane vesicle from BCRP-expressing K562 cells; format: functional, cell membranes; design: scale not given: the % may be the effect or the level left; conditions: membrane vesicles from BCRP-expressing K562 cells, probe E1S, read-out: Activity
[7] = target: T1, Broad substrate specificity ATP-binding cassette transporter ABCG2; assay: TP_TRANSPORTER: drug resistance in BCRP-expressing LLC-PK1 cells; format: functional, cell-based; conditions: pig
[8] = target: T1, Broad substrate specificity ATP-binding cassette transporter ABCG2; assay: TP_TRANSPORTER: inhibition of E1S uptake by 7-ethyl-10-hydroxycamptothecin at a concentration of 20uM in membrane vesicle from BCRP-expressing K562 cells; format: functional, cell membranes; design: scale not given: the % may be the effect or the level left; conditions: k562, 20 µM
BCRP (ABCG2) [9] = target: T2, BCRP (ABCG2); assay: TP_TRANSPORTER: inhibition of E1S uptake by 17beta-estradiol 3-sulfate at a concentration of 30uM in membrane vesicle from BCRP-expressing K562 cells; format: functional, cell membranes; design: scale not given: the % may be the effect or the level left; conditions: membrane vesicles from BCRP-expressing K562 cells, probe E1S, read-out: Activity
[10] = target: T1, Broad substrate specificity ATP-binding cassette transporter ABCG2; assay: TP_TRANSPORTER: efflux in BCRP-expressing LLC-PK1 cells; format: functional, cell-based; conditions: pig
BCRP (ABCG2) [11] = target: T2, BCRP (ABCG2); assay: TP_TRANSPORTER: inhibition of E1S uptake by Estrone at a concentration of 30uM in membrane vesicle from BCRP-expressing K562 cells; format: functional, cell membranes; design: scale not given: the % may be the effect or the level left; conditions: membrane vesicles from BCRP-expressing K562 cells, probe E1S, read-out: Activity
[12] = substrate: C[C@]12CC[C@@H]3c4ccc(OS(=O)(=O)O)cc4CC[C@H]3[C@@H]1CCC2=O; assay: TP_TRANSPORTER: uptake in membrane vesicle from BCRP-expressing K562 cells; format: functional, cell membranes

## C[C@]12CC[C@@H]3c4ccc(OS(=O)(=O)O)cc4CC[C@H]3[C@@H]1CCC2=O [ESTRONE SULFURIC ACID]
[1]
  Activity: substrate []

## C[C@]12CCC(=O)C=C1CC[C@@H]1[C@@H]2[C@@H](O)C[C@@]2(C)[C@H]1CC[C@]2(O)C(=O)CO [HYDROCORTISONE]
[2]
  Activity: 70%

## C[C@]12CC[C@H](OS(=O)(=O)O)CC1=CC[C@@H]1[C@@H]2CC[C@]2(C)C(=O)CC[C@@H]12 [PRASTERONE SULFURIC ACID]
BCRP (ABCG2) [3]
  activity at 30 µM: 50%

## C[C@H](CCC(=O)NCCS(=O)(=O)O)C1CC[C@H]2[C@@H]3CC[C@@H]4C[C@H](OS(=O)(=O)O)CC[C@]4(C)[C@H]3CC[C@]12C (some centres undefined)
BCRP (ABCG2) [4]
  activity at 30 µM: 30%

## C[C@]12CC[C@@H]3c4ccc(O)cc4CC[C@H]3[C@@H]1CC[C@@H]2O [ESTRADIOL]
BCRP (ABCG2) [5]
  activity at 30 µM: 50%

## C[C@H](CCC(=O)NCCS(=O)(=O)O)[C@H]1CC[C@H]2[C@@H]3CC[C@@H]4C[C@H](O)CC[C@]4(C)[C@H]3CC[C@]12C [TAUROLITHOCHOLIC ACID]
BCRP (ABCG2) [6]
  activity at 30 µM: 20%

## O=C1c2c(O)ccc(O)c2C(=O)c2c(NCCNCCO)ccc(NCCNCCO)c21 [MITOXANTRONE]
[7]
  Activity: substrate []

## COc1ccc2c3c([nH]c2c1)[C@H](C=C(C)C)N1C(=O)[C@@H]2CCCN2C(=O)[C@@H]1C3 [FUMITREMORGIN]
[7]
  Activity: substrate []

## CCc1c2c(nc3ccc(O)cc13)-c1cc3c(c(=O)n1C2)COC(=O)[C@]3(O)CC [7-ETHYL-10-HYDROXYCAMPTOTHECIN]
[7]
  Activity: substrate []
[8]
  Activity: 40%

## C[C@]12CC[C@@H]3c4ccc(OS(=O)(=O)O)cc4CC[C@H]3[C@@H]1CC[C@@H]2O
BCRP (ABCG2) [9]
  activity at 30 µM: 50%
[10]
  Activity: substrate []

## C[C@]12CC[C@@H]3c4ccc(O)cc4CC[C@H]3[C@@H]1CCC2=O [ESTRONE]
BCRP (ABCG2) [11]
  activity at 30 µM: 70%

B1: Broad substrate specificity ATP-binding cassette transporter ABCG2 (Homo sapiens) (protein)
chain: T1 sequence (Q9UNQ0 whole entry)
[12]
  Km: 6.8 µM
